Assays:
STAT3 = STAT3 transcription inhibition test (reporter gene method, oncostatin M stimulation); format: cell-based; conditions: Homo sapiens; compound at 100 μM; STAT3 reporter HeLa stable cell line; oncostatin M 10 ng/mL, 4 hours; read-out: STAT3 transcription inhibitory activity (%)
Protocol: The inhibition of STAT3 transcription was evaluated by using STAT3 reporter HeLa stable cell line (Panomics Inc., catalog No. RC0003), a cell line for the reporter gene method, and performing the following method according to the appendix included therein.
STAT3 reporter HeLa stable cell line subcultured and maintained in a Dulbecco's modified Eagle's medium (DMEM) containing 10% fetal bovine serum, 100 units/mL penicillin, and 100 μg/mL streptomycin was inoculated at a concentration of 40000 cells/well to a 96-well plate (white) and attached to the plate by overnight incubation at 37° C. under 5% CO2. After addition of each evaluation compound adjusted to various concentrations (adjusted with a DMSO solution), the cells were precultured for 1 hour. Then, oncostatin M for activating STAT3 was added at a final concentration 10 ng/mL, and the cells were further cultured at 37° C. under 5% CO2 for 4 hours. Luciferase activity derived from the cells was determined using Steady-Glo Luciferase Assay System (Promega Corp.), and STAT3 transcriptional activity scores were calculated according to the following formula: STAT3 transcriptional activity score (%)=100×(Lchem−L0)/(LDMSO−L0) Lo: luminescence intensity obtained without stimulation with oncostatin M Lchem: luminescence intensity obtained by the addition of a test sample LDMSO: luminescence intensity obtained by the addition of only a solvent for dissolving a test sample

MDA-MB-435S = MDA-MB-435S cell growth inhibitory activity; format: cell-based; conditions: Homo sapiens, compound at 20 μM, 72 hours, read-out: Cell growth inhibitory activity (%)
Protocol: […] Each well was washed three times with a medium. Then, after addition of 100 μL/well of a medium and 20 μL/well of CellTiter 96 AQueous One Solution Reagent (Promega Corp.), the cells were incubated at 37° C. for 2 hours in the presence of 5% CO2.

COc1ccc2nc(-c3ccccc3)cc(C(=O)Nc3nnc(-c4ccco4)o3)c2c1 [Ia-23, N-[5-(2-furyl)-1,3,4-oxadiazol-2-yl]-6-methoxy-2-phenyl-4-quinolinecarboxamide] gave an inhibition at 100 µM (STAT3) of 100% and an inhibition at 20 µM (MDA-MB-435S) of 50%.

In the case of O=C(Nc1nnc(-c2ccccc2Cl)o1)c1cc(-c2ccccc2)nc2ccc(Cl)cc12 [Ia-112, 6-chloro-N-[5-(2-chlorophenyl)-1,3,4-oxadiazol-2-yl]-2-phenyl-4-quinolinecarboxamide], the inhibition at 100 µM (STAT3) is reported as over 100% and the inhibition at 20 µM (MDA-MB-435S) is reported as 69%.

CCC(=O)Nc1ccc2nc(-c3ccccc3)cc(C(=O)Nc3nnc(-c4ccco4)o3)c2c1 [Ia-93, N-[5-(2-furyl)-1,3,4-oxadiazol-2-yl]-2-phenyl-6-propionylamino-4-quinolinecarboxamide] gave an inhibition at 100 µM (STAT3) of 72% and an inhibition at 20 µM (MDA-MB-435S) of 67%.

Work on COc1ccccc1-c1nnc(NC(=O)c2cc(-c3ccccc3)nc3ccccc23)o1 [Ia-c, N-[5-(2-methoxyphenyl)-1,3,4-oxadiazol-2-yl]-2-phenyl-4-quinolinecarboxamide] yielded an inhibition at 100 µM (STAT3) of 67% and an inhibition at 20 µM (MDA-MB-435S) of 97%.

For O=C(Nc1nnc(-c2ccoc2)o1)c1cc(-c2ccccc2)nc2ccccc12 [Ia-2, N-[5-(3-furyl)-1,3,4-oxadiazol-2-yl]-2-phenyl-4-quinolinecarboxamide], the inhibition at 100 µM (STAT3) was over 100%.

CCCC(=O)Nc1ccc2nc(-c3ccccc3)cc(C(=O)Nc3nnc(-c4ccco4)o3)c2c1 [Ia-94, 6-butyrylamino-N-[5-(2-furyl)-1,3,4-oxadiazol-2-yl]-2-phenyl-4-quinolinecarboxamide] gave an inhibition at 100 µM (STAT3) of 89%.

For Cc1ccc(-c2cc(C(=O)Nc3nnc(-c4ccco4)o3)c3ccccc3n2)c(C)c1 [Ia-56, N-[5-(2-furyl)-1,3,4-oxadiazol-2-yl]-2-(2,4-dimethylphenyl)-4-quinolinecarboxamide], the inhibition at 100 µM (STAT3) was 99%.

O=C(Nc1nnc(-c2ccco2)o1)c1cc(-c2ccco2)nc2c(Cl)cccc12 [Ia-79, 8-chloro-2-(2-furyl)-N-[5-(2-furyl)-1,3,4-oxadiazol-2-yl]-4-quinolinecarboxamide] gave an inhibition at 100 µM (STAT3) of over 100%.

With COc1ccc(OC)c(-c2cc(C(=O)Nc3nnc(-c4ccncc4)s3)c3ccccc3n2)c1 [Ib-c, 2-(2,5-dimethoxyphenyl)-N-[5-(4-pyridyl)-1,3,4-thiadiazol-2-yl]-4-quinolinecarboxamide] the inhibition at 100 µM (STAT3) was over 100%.

With O=C(Nc1nnc(-c2ccccc2)o1)c1cc(-c2cccs2)nc2ccccc12 [Ia-j, N-(5-phenyl-1,3,4-oxadiazol-2-yl)-2-(2-thienyl)-4-quinolinecarboxamide] the inhibition at 100 µM (STAT3) was 91%.

In the case of O=C(Nc1nnc(-c2ccncc2)s1)c1cc(-c2cccnc2)nc2ccc(Cl)cc12 [Ib-d, 6-chloro-2-(3-pyridyl)-N-[5-(4-pyridyl)-1,3,4-thiadiazol-2-yl]-4-quinolinecarboxamide], the inhibition at 100 µM (STAT3) is reported as 73%.

Cc1cc(-c2cc(C(=O)Nc3nnc(-c4ccncc4)s3)c3cc(Cl)ccc3n2)c(C)s1 [Ib-f, 6-chloro-2-(2,5-dimethyl-3-thienyl)-N-[5-(4-pyridyl)-1,3,4-thiadiazol-2-yl]-4-quinolinecarboxamide] showed an inhibition at 100 µM (STAT3) of 100%.

Molecule O=C(Nc1nnc(-c2ccco2)o1)c1cc(-c2ccccc2)nc2ccc(OCc3ccccc3)cc12 [Ia-90, 6-benzyloxy-N-[5-(2-furyl)-1,3,4-oxadiazol-2-yl]-2-phenyl-4-quinolinecarboxamide] has an inhibition at 100 µM (STAT3) of over 100%.

In the case of Cc1ccc(-c2cc(C(=O)Nc3nnc(-c4ccncc4)s3)c3ccccc3n2)o1 [Ib-e, 2-(5-methyl-2-furyl)-N-[5-(4-pyridyl)-1,3,4-thiadiazol-2-yl]-4-quinolinecarboxamide], the inhibition at 100 µM (STAT3) is reported as 85%.

Molecule CN(C)CCOc1ccc2nc(-c3ccccc3)cc(C(=O)Nc3nnc(-c4ccco4)o3)c2c1 [Ia-88, N-[5-(2-furyl)-1,3,4-oxadiazol-2-yl]-6-[2-(dimethylamino)ethoxy]-2-phenyl-4-quinolinecarboxamide] has an inhibition at 100 µM (STAT3) of 76%.
